The text below walks through data of ChEMBL document CHEMBL5107957, “Trends in targeting Bcl-2 anti-apoptotic proteins for cancer treatment” (Eur J Med Chem, 2022).

By Ki is commonly meant the equilibrium dissociation constant of an inhibitor or competing ligand from its target. By EC50 is commonly meant the concentration that produces a half-maximal response. The Emax is the greatest response seen or fitted, relative to the assay's reference. As usually defined, the IC50 is the point on the concentration scale where inhibition reaches its midpoint. What is called solubility is how much of the substance goes into solution per volume. A high value points to much dissolved substance.

Each structure is given as a SMILES string.

Data set [1] addresses T1, Bcl-2-like protein 1 (Homo sapiens, UniProt Q07817). Description: Binding affinity to Bcl-xL (unknown origin) assessed as inhibition constant by fluorescence polarization assay. A general note: Polarisation of emitted light reports the rotation of a fluorescent probe.
Data set [2] has as its target T1, Bcl-2-like protein 1. Description: Binding affinity to human Bcl-xL assessed as inhibition constant incubated for 15 mins by competition fluorescence polarization assay.
Data set [3] concerns the target T2, Apoptosis regulator Bcl-2 (Homo sapiens, UniProt P10415). Put plainly: Binding affinity to human Bcl-2 assessed as inhibition constant incubated for 15 mins by competition fluorescence polarization assay.
Data set [4] deals with T3, Induced myeloid leukemia cell differentiation protein Mcl-1 (Homo sapiens, UniProt Q07820). Put plainly: Binding affinity to human Mcl-1 assessed as inhibition constant incubated for 15 mins by competition fluorescence polarization assay.
The nature of data set [5]: Binding affinity to recombinant Bcl-2 V113G mutant (unknown origin) using peptide probe incubated for 2 hrs by fluorescence based assay. Details: species or system Homo sapiens.
Data set [6] can be described thus: Binding affinity to recombinant Bcl-2 D129L mutant (unknown origin) using peptide probe incubated for 2 hrs by fluorescence based assay. Details: species or system Homo sapiens.
Data set [7] has as its target T4, von Hippel-Lindau disease tumor suppressor/Bcl-2-like protein 1 (Homo sapiens, UniProt P40337+Q07817). Description: PROTAC activity at VHL/Bcl-xL in human THP-1 cells assessed as induction of Bcl-xL degradation incubated for 24 hrs by Western blot assay. It is filed as cell-based. Background: Immunoblotting shows a protein as a band on a membrane.
The target in data set [8] is T5, von Hippel-Lindau disease tumor suppressor/Bcl-2-like protein 1 (Homo sapiens) (UniProt Q07817+P40337). Description: PROTAC activity at VHL/Bcl-xL in human THP-1 cells assessed as induction of Bcl-xL degradation incubated for 24 hrs by Western blot assay relative to control. It counts as cell-based.
For a further data set, the system named is MOLT-4. Description: Cytotoxicity against human MOLT-4 cells assessed as cell growth inhibition incubated for 72 hrs. It is filed as functional, cell-based. To be noted: MOLT-4, 72 h.
Data set [9] deals with Protein cereblon/Bcl-2-like protein 1 (Homo sapiens) (UniProt Q07817+Q96SW2). Put plainly: PROTAC activity at CRBN/Bcl-xL in human MOLT-4 cells assessed as induction of Bcl-xL degradation at 100 nM incubated for 16 hrs by Western blot assay relative to control. It is filed as cell-based.
Data set [10] in a line: Cytotoxicity against human platelets assessed as cell growth inhibition incubated for 24 hrs. It is filed as toxicity, cell-based, Platelet.
Data set [11] in a line: Selectivity ratio of IC50 for human platelets to IC50 for human MOLT-4 cells. It counts as toxicity. To be noted: human platelets and human MOLT-4 cells.
Data set [12] has as its target T2, Apoptosis regulator Bcl-2. Description: Binding affinity to Bcl-2 (unknown origin) assessed as inhibition constant.
In data set [13] the target is T1, Bcl-2-like protein 1. Put plainly: Binding affinity to Bcl-xL (unknown origin) assessed as inhibition constant.
Data set [14] has as its target T4, von Hippel-Lindau disease tumor suppressor/Bcl-2-like protein 1. Put plainly: PROTAC activity at VHL/Bcl-xL in human MOLT-4 cells assessed as induction of Bcl-xL degradation incubated for 16 hrs by immunoblot assay. It counts as cell-based.
The target in data set [15] is T5, von Hippel-Lindau disease tumor suppressor/Bcl-2-like protein 1 (Homo sapiens). Description: PROTAC activity at VHL/Bcl-xL in human MOLT-4 cells assessed as induction of Bcl-xL degradation incubated for 16 hrs by immunoblot assay relative to control. It is filed as cell-based.
The target in data set [16] is T3, Induced myeloid leukemia cell differentiation protein Mcl-1. Put plainly: Binding affinity to Mcl-1 (unknown origin) assessed as inhibition constant using 5-FAM-QEDIIRNIARHLAQVGDSMDRSIPPG as substrate.
Data set [17] concerns the target T2, Apoptosis regulator Bcl-2. Put plainly: Binding affinity to Bcl-2 (unknown origin) assessed as inhibition constant using 5-FAM-QEDIIRNIARHLAQVGDSMDRSIPPG as substrate.
In data set [18] the target is T1, Bcl-2-like protein 1. Description: Displacement of synthetic peptide tracer conjugated to fluorescein isothiocyanate from C-terminal 6xHis-tagged Bcl-xL (1 to 209 residues) (unknown origin) preincubated for 1 hr followed by tracer addition measured after 20 mins by fluorescence polarization assay.
In data set [19] the target is T2, Apoptosis regulator Bcl-2. Description: Displacement of synthetic peptide tracer conjugated to fluorescein isothiocyanate from C-terminal 6xHis-tagged Bcl-2 (1 to 204 residues) (unknown origin) preincubated for 1 hr followed by tracer addition measured after 20 mins by fluorescence polarization assay.
Data set [20] in a line: Solubility of the compound in aqueous buffer at physiological pH. It counts as physicochemical.

T2 sequence (P10415 whole entry): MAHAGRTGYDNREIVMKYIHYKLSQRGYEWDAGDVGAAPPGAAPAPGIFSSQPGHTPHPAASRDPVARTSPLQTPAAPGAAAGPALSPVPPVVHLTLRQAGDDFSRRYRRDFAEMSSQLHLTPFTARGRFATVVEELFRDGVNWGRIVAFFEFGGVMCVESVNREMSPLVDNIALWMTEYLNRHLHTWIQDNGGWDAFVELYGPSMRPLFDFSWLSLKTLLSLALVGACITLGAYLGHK
T1 sequence (Q07817 whole entry): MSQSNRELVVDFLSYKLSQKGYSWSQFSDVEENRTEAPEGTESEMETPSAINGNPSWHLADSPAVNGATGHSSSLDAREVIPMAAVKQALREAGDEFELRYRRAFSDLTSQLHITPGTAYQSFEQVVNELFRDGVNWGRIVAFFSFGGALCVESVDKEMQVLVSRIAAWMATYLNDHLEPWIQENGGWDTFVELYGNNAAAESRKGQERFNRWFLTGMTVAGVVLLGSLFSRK
T3 sequence (Q07820 whole entry): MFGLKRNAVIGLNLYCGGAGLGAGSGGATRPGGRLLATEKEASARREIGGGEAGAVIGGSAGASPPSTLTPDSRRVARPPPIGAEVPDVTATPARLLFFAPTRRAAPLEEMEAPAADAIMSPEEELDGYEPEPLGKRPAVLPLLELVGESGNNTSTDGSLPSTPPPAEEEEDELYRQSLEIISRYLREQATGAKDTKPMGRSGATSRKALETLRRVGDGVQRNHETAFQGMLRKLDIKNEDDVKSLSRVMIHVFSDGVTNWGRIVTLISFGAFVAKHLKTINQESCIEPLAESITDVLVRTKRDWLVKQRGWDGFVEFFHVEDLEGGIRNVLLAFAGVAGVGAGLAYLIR
T5 sequence (P40337 whole entry, looked up): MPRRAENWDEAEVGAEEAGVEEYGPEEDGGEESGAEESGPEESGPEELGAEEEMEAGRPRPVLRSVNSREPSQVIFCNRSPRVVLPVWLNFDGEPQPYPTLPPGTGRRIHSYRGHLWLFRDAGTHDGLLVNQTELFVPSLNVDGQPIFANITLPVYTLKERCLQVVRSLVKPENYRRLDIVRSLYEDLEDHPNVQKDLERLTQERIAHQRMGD
T5 sequence (Q07817 whole entry, looked up): as the sequence (Q07817 whole entry) above
T4 sequence (Q07817 whole entry): as above
T4 sequence (P40337 whole entry): as the sequence (P40337 whole entry, looked up) above
Chain of Protein cereblon/Bcl-2-like protein 1 (Homo sapiens) (Q07817 whole entry, looked up): as the sequence (Q07817 whole entry) above
Chain of Protein cereblon/Bcl-2-like protein 1 (Homo sapiens) (Q96SW2 whole entry, looked up): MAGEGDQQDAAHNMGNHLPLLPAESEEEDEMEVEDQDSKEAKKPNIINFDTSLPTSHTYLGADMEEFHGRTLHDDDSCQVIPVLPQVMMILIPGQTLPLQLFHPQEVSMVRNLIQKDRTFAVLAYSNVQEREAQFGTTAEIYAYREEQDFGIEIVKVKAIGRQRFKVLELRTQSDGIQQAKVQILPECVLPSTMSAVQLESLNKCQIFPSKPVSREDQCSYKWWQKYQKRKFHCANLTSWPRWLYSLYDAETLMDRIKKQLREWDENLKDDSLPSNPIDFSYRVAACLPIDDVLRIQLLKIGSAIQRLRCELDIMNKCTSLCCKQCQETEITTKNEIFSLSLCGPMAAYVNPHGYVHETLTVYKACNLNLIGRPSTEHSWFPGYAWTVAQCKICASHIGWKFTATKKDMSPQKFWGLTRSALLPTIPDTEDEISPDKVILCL

On to `Cc1c(S(C)(=O)=O)c(-c2cc(F)cc(N3CCN(c4ccc(NS(=O)(=O)c5ccc(N[C@H](CCN6CCC(O)CC6)CSc6ccccc6)c(S(=O)(=O)C(F)(F)F)c5)cc4)CC3)c2)c(-c2ccc(Cl)cc2)n1C(C)C`, for which the Ki at Bcl-2-like protein 1 [1] is below 1 nM.

In the case of `CCN(CC)C[C@@H](O)CNc1ccc(NC[C@H]2CO2)c2c1C(=O)c1ccccc1C2=O`, the Ki was above 500 nM on Bcl-2-like protein 1 [2], 3.3 nM in [3] and above 550 nM in data set [4].

On to `Cc1c(N(C(=O)c2cc(-c3cc(Cl)ccc3C(=O)N3Cc4ccccc4C[C@H]3CN3CCOCC3)n(C)c2C)c2ccc(O)cc2)cc(C#N)n1C` [VOB-560], for which the inhibition constant (Ki) was determined as 9.6 nM in data set [5] and 1 nM in data set [6].

Regarding `Cc1ncsc1-c1ccc(CNC(=O)[C@@H]2C[C@@H](O)CN2C(=O)[C@@H](NC(=O)CCOCCOCCOCCOCCOCCOCC#Cc2ccc(OCCCc3sc(N4CCc5cccc(C(=O)Nc6nc7ccccc7s6)c5C4)nc3C(=O)O)cc2)C(C)(C)C)cc1`, the EC50 in data set [7] turned out to be 4.8 nM. Further, in data set [8], the Emax was 76%.

Consider `O=C1CCC(N2C(=O)c3cccc(NCCOCCOCc4cn(CCCC(=O)N5CCN(CC#Cc6ccc(OCCCc7sc(N8CCc9cccc(C(=O)Nc%10nc%11ccccc%11s%10)c9C8)nc7C(=O)O)c(F)c6)CC5)nn4)c3C2=O)C(=O)N1` (stereo not drawn), for which the 50% inhibitory concentration (IC50) in the data set on MOLT-4 came out at 51 nM. For the same molecule, the maximal response (Emax) in data set [9] stood at 85%. Further, the IC50 at 24 h in data set [10] stood at 1140 nM. In data set [11], the selectivity ratio turned out to be 22.

Regarding `Cc1c(S(C)(=O)=O)c(-c2cc(F)cc(N3CCN(c4ccc(NS(=O)(=O)c5ccc(N[C@H](CCN6CCC(C(=O)OCCCP(=O)(O)O)CC6)CSc6ccccc6)c(S(=O)(=O)C(F)(F)F)c5)cc4)CC3)c2)c(-c2ccc(Cl)cc2)n1C(C)C` [PELCITOCLAX], the inhibitory constant (Ki) (in data set [12]; at Bcl-2-like protein 1 [13]) was below 1 nM throughout.

As to `Cc1ncsc1-c1ccc([C@H](C)NC(=O)[C@@H]2C[C@@H](O)CN2C(=O)[C@@H](NC(=O)CCCCCC(=O)N2CCN(CC[C@H](CSc3ccccc3)Nc3ccc(S(=O)(=O)NC(=O)c4ccc(N5CCN(CC6=C(c7ccc(Cl)cc7)CCC(C)(C)C6)CC5)cc4)cc3S(=O)(=O)C(F)(F)F)CC2)C(C)(C)C)cc1` [DT-2216], the concentration for a half-maximal effect (EC50) in [14] came out at 63 nM. Further, the maximal response (Emax) in data set [15] came to 90.8%.

`CN(C)CC#Cc1ccc(OCCCc2sc(N3CCc4cccc(C(=O)Nc5nc6ccccc6s5)c4C3)nc2C(=O)O)c(F)c1` [A-1155463]: the IC50 in the data set on MOLT-4 turned out to be 6.2 nM. In addition, the IC50 at 24 h in [10] was 7.1 nM.

`N#Cc1ccc(CN2Cc3c(cc(Br)c(OCc4ccc(-c5ccccc5)cc4)c3Br)C[C@H]2C(=O)NS(=O)(=O)c2ccc(Cl)c([N+](=O)[O-])c2)cc1`: the inhibition constant (Ki) in data set [16] was determined as 0.35 nM; in data set [17], 0.45 nM.

Take `CN(CCO)CC[C@H](CSc1ccccc1)Nc1ccc(S(=O)(=O)NC(=O)c2ccc(N3CCC([C@@H](O)c4ccccc4-c4ccc(Cl)cc4)CC3)cc2)cc1S(=O)(=O)C(F)(F)F`: the IC50 was 4.5 nM on Bcl-2-like protein 1 [18] and 3.9 nM in data set [19]. Moreover, the solubility in data set [20] is below 1 µg/mL.
